Laboratory results from US9718762B2, “Insecticidal compounds” (Syngenta Participations AG, priority 2013, dated 2017).

Key:
Assay type in all cases: in vivo
Spodoptera littoralis = Spodoptera littoralis (Egyptian cotton leafworm) cotton leaf disc spray test; details: foliar, 72 h, 200 ppm spray on cotton leaf discs, L1 larvae, 3 days after treatment, mortality, feeding behavior, growth regulation
Text: Spodoptera littoralis (Egyptian Cotton Leafworm): Cotton leaf discs were placed on agar in a 24-well microtiter plate and sprayed with test solutions at an application rate of 200 ppm. After drying, the leaf discs were infested with 5 L1 larvae. The samples were checked for mortality, feeding behavior, and growth regulation 3 days after treatment (DAT).

Heliothis virescens = Heliothis virescens (tobacco budworm) egg test on artificial diet; details: 96 h, 200 ppm (concentration in well 18 ppm), eggs on artificial diet, 4 days, egg mortality, larval mortality, growth regulation
Experimental: Heliothis virescens (Tobacco Budworm): Eggs (0-24 h old) were placed in 24-well microtiter plate on artificial diet and treated with test solutions at an application rate of 200 ppm (concentration in well 18 ppm) by pipetting. After an incubation period of 4 days, samples were checked for egg mortality, larval mortality, and growth regulation.

Plutella xylostella = Plutella xylostella (diamond back moth) artificial diet test; details: 144 h, 200 ppm (concentration in well 18 ppm), L2 larvae, 6 days, larval mortality, growth regulation
Experimental: Plutella xylostella (Diamond Back Moth): 24-well microtiter plate (MTP) with artificial diet was treated with test solutions at an application rate of 200 ppm (concentration in well 18 ppm) by pipetting. After drying, the MTP's were infested with L2 larvae (7-12 per well). After an incubation period of 6 days, samples were checked for larval mortality and growth regulation.

Diabrotica balteata = Diabrotica balteata (corn root worm) artificial diet test; details: 120 h, 200 ppm (concentration in well 18 ppm), L2 larvae, 5 days, larval mortality, growth regulation
Experimental: Diabrotica balteata (Corn Root Worm): A 24-well microtiter plate (MTP) with artificial diet was treated with test solutions at an application rate of 200 ppm (concentration in well 18 ppm) by pipetting. After drying, the MTP's were infested with L2 larvae (6-10 per well). After an incubation period of 5 days, samples were checked for larval mortality and growth regulation.

Thrips tabaci = Thrips tabaci (onion thrips) sunflower leaf disc spray test; details: foliar, 168 h, 200 ppm spray on sunflower leaf discs, population of mixed ages, 7 days, mortality
Experimental: Thrips tabaci (Onion Thrips): Sunflower leaf discs were placed on agar in a 24-well microtiter plate and sprayed with test solutions at an application rate of 200 ppm. After drying, the leaf discs were infested with an […] population of mixed ages. After an incubation period of 7 days, samples were checked for mortality.

Tetranychus urticae = Tetranychus urticae (two-spotted spider mite) bean leaf disc spray test; details: foliar, 192 h, 200 ppm spray on bean leaf discs, mite populations of mixed ages, 8 days, egg, larval and adult mortality
Text: Tetranychus urticae (Two-Spotted Spider Mite): Bean leaf discs on agar in 24-well microtiter plates were sprayed with test solutions at an application rate of 200 ppm. After drying, the leaf discs are infested with mite populations of mixed ages. 8 days later, discs are checked for egg mortality, larval mortality, and adult mortality.

Myzus persicae = Myzus persicae (green peach aphid) sunflower leaf disc spray test; details: foliar, 144 h, 200 ppm spray on sunflower leaf discs, aphid population of mixed ages, 6 DAT, mortality
Experimental: Myzus persicae (Green Peach Aphid): Sunflower leaf discs were placed on agar in a 24-well microtiter plate and sprayed with test solutions at an application rate of 200 ppm. After drying, the leaf discs were infested with an […] population of mixed ages. After an incubation period of 6 DAT, samples were checked for mortality.

Measured: pest or weed control at 200 ppm

CCN(C(=O)c1ccc(C#N)cc1)c1cccc(C(=O)Nc2c(Cl)cc(C(F)(C(F)(F)F)C(F)(F)F)cc2Br)c1OC [Compound 1, N-[2-bromo-6-chloro-4-[1,1,1,2,3,3,3-heptafluoro-prop-2-yl]phenyl]-3-[(4-cyanobenzoyl)-ethyl-amino]-2-methoxy-benzamide]
≥ 80%: all assays above

CCN(C(=O)c1ccc(C#N)cc1)c1cccc(C(=O)Nc2c(Cl)cc(C(F)(C(F)(F)F)C(F)(F)F)cc2Cl)c1OC [Compound 2]
≥ 80%: all assays above

CCc1cc(C(F)(C(F)(F)F)C(F)(F)F)cc(C)c1NC(=O)c1cccc(N(CC)C(=O)c2ccc(C#N)cc2)c1OC [Compound 3]
≥ 80%: all assays above

COc1c(C(=O)Nc2c(Cl)cc(C(F)(C(F)(F)F)C(F)(F)F)cc2Br)cccc1N(C)C(=O)c1ccc(C#N)cc1 [Compound 4]
≥ 80%: all assays above

CCN(C(=O)c1ccc(C#N)cc1)c1cccc(C(=O)Nc2c(Br)cc(C(F)(C(F)(F)F)C(F)(F)F)cc2Br)c1OC [Compound 5]
≥ 80%: all assays above

COc1c(C(=O)Nc2c(Br)cc(C(F)(C(F)(F)F)C(F)(F)F)cc2Br)cccc1N(C)C(=O)c1ccc(C#N)cc1 [Compound 6]
≥ 80%: all assays above

COc1c(C(=O)Nc2c(Cl)cc(C(F)(C(F)(F)F)C(F)(F)F)cc2Cl)cccc1N(C)C(=O)c1ccc(C#N)cc1 [Compound 7]
≥ 80%: all assays above

CCc1cc(C(F)(C(F)(F)F)C(F)(F)F)cc(Br)c1NC(=O)c1cccc(N(CC)C(=O)c2ccc(C#N)cc2)c1 [Compound 8]
not listed: Spodoptera littoralis
≥ 80%: all other assays above

CCc1cc(C(F)(C(F)(F)F)C(F)(F)F)cc(CC)c1NC(=O)c1cccc(N(CC)C(=O)c2ccc(C#N)cc2)c1OC [Compound 9]
≥ 80%: all assays above

CCc1cc(C(F)(C(F)(F)F)C(F)(F)F)cc(Br)c1NC(=O)c1cccc(N(C)C(=O)c2ccc(C#N)cc2)c1OC [Compound 10]
≥ 80%: all assays above

CCc1cc(C(F)(C(F)(F)F)C(F)(F)F)cc(Cl)c1NC(=O)c1cccc(N(C)C(=O)c2ccc(C#N)cc2)c1OC [Compound 11]
≥ 80%: all assays above

CCc1cc(C(F)(C(F)(F)F)C(F)(F)F)cc(Cl)c1NC(=O)c1cccc(N(CC)C(=O)c2ccc(C#N)cc2)c1OC [Compound 12]
≥ 80%: all assays above
